This test relates to Bacillus cereus. Description: Initial velocity (v) of the hydrolysis catalyzed by Bacillus cereus sphingomyelinase was measured. The test is classed as functional.
With `CCCCC/C=C/[C@@H](O)[C@H](COP(=O)([O-])OCC[N+](C)(C)C)NC(=O)CCCCC`, the Velocity was 136.31 µM/min/mg. For `CCCCCCC[C@H](O)[C@H](COP(=O)([O-])OCC[N+](C)(C)C)NC(=O)CCCCC` the value was 5.08 µM/min/mg; for `CCCCCCC[C@@H](O)[C@H](COP(=O)([O-])OCC[N+](C)(C)C)NC(=O)CCCCC`, 109.15 µM/min/mg. Turning to `CCCCC/C=C/[C@H](O)[C@H](COP(=O)([O-])OCC[N+](C)(C)C)NC(=O)CCCCC`, the Velocity was determined as 11.17 µM/min/mg.

Values taken from ChEMBL document CHEMBL1151078, “An efficient synthesis of short-chain sphingomyelin analogs and their susceptibility to hydrolysis catalyzed by sphingomyelinase” (1997).
